row,melting point,SMILES
1,83 to 84 °C,"O=C(NCC1(c2nc(C3CC3)cs2)CC1)c1ccccc1C(F)(F)F [A.10, N-[[1-(4-cyclopropylthiazol-2-yl)cyclopropyl]methyl]-2-(trifluoromethyl)benzamide]"
2,94 to 96 °C,"O=C(NCC1(c2ncc(C(F)(F)F)s2)CC1)c1ccccc1C(F)(F)F [A.29, 2-(trifluoromethyl)-N-[[1-[5-(trifluoromethyl)thiazol-2-yl]cyclopropyl]methyl]benzamide]"
3,146 to 147 °C,"O=C(NCC1(c2nc(Cl)cs2)CC1)c1cccnc1C(F)(F)F [A.21, N-[[1-(4-chlorothiazol-2-yl)cyclopropyl]methyl]-2-(trifluoromethyl)pyridine-3-carboxamide]"

# Source: patent US20140287916A1, “PESTICIDAL COMPOUNDS” (SYNGENTA PARTICIPATIONS AG, priority 2011, published 2014)
